Assays:
Type in all cases: cell-based
PC3 [1] = assay: Cytoxicity / crystal violet staining, PC3; conditions: average of triplicates, % of apoptotic cells vs DMSO controls, N.A. = not active at 10 μM
Protocol: (§1) PC3 (provided by Dr. Steven Balk's laboratory in Department of Medicine at Beth Israel Deaconess Medical Center), PANC02 and CRL2119 (provided by Dr. Pankaja Seth's laboratory in Department of Medicine at Beth Israel Deaconess Medical Center), A549 (ATCC) cell lines were cultured according to manufacturer's protocols. Briefly, PC3 were cultured in RPMI medium supplemented with 10% FBS (Atlanta). PANC-2, A549 and CRL2119 were cultured in DMEM High medium supplemented with 10% FBS (Atlanta). Human bronchial epithelial cells (BEC) were cultured in Airway Epithelial Cell Basal Medium with the Bronchial Epithelial cell growth kit (ATCC) according to manufacturer's protocol and used at passages 3-5.
(§2) Cells were seeded at 5×10^3 concentration in 96 well plates and treated with test compounds or DMSO (0.001-10 μM) for 72 hours. Culture medium was removed and cells were stained with crystal violet solution (Sigma-Aldrich) for 15 minutes while shaking at room temperature. Crystal violet was then removed and cells were repeatedly washed in water. Attached cells stained with crystal violet were dried and then resuspended in 10% acetic acid. Absorbance was measured at 562 nm. The intensity of staining corresponded directly to the number of live cells.

A549 [2] = assay: Cytoxicity / crystal violet staining, A549; conditions: average of triplicates, % of apoptotic cells vs DMSO controls, N.A. = not active at 10 μM
Protocol: as §1, §2

A549 cells = assay: Invasion chambers (Transwell, Matrigel); conditions: serum chemoattractants, compared to untreated cells
Protocol: The invasion of A549 cells was measured using Transwell chambers (Chemicon, Millipore, Calif.) according to the manufacturer's protocol. Briefly, A549 cells were treated with test compounds at 1 μM in 500 μl of DMEM medium without FBS for 24 hours. Medium in the upper chamber was serum-free while medium in the lower chamber contained 10% FBS as a source of chemoattractants. Cells that passed through the Matrigel-coated membrane were stained and photographed after 24 hours of incubation. Absorbance was measured at 562 nm by ELISA reader after dissolving of stained cells in 10% acetic acid.

PC3 [3] = assay: Cytoxicity / crystal violet staining, PC3; conditions: Homo sapiens, PC-3; 0.01-5 μM for 72 hours, n=4
A549 [4] = assay: Cytoxicity / crystal violet staining, A549; conditions: Homo sapiens, 0.01-5 μM for 72 hours, n=4
PC3 cells = assay: Immunostaining of α-tubulin and β-actin in PC3 cells; conditions: Compound 6 1 μM or docetaxel 20 nM, 24 hours
Protocol: Immunofluorescence and immunostaining on cell lines and tumor samples were performed as described in Wegiel et al, Cancer research 2013, 73(23), 7009-21. Anti-mouse STMN1, anti-P (Ser10)-Histone H3, and α-tubulin antibody were obtained from Cell Signaling. β-actin antibody was obtained from Sigma-Aldrich. […] After immunofluorescence staining, the number of P-Histone H3 was quantified per field of view at 40× magnification using Zeiss Axiovert Microscope.

Compound | Cytoxicity (% cell killing at 10 μM) PC3 (PC3 [1]) [%] | Cytoxicity (% cell killing at 10 μM) A549 (A549 [2]) [%] | invasion / migration through matrigel coated chambers (A549 cells) | IC50 (PC3 [3]) [nM] | IC50 (A549 [4]) [nM] | microtubule stability (α-tubulin immunostaining) (PC3 cells)
CCn1ccc2cc(/C=C3\CCc4ccc(F)cc4C3=O)ccc21 [Compound 8, (2E)-2-[(1-ethyl-1H-indol-5-yl)methylidene]-7-fluoro-1,2,3,4-tetrahydronaphthalen-1-one] | 33 | 38 | strongly inhibited invasion | 106 | 113 | 
CC(=O)n1ccc2cc(/C=C3\CCc4ccc(F)cc4C3=O)ccc21 [Compound 9] | 24 | 28 |  |  |  | 
O=C1/C(=C/c2ccc3[nH]ccc3c2)CCc2ccc(Br)cc21 [Compound 19] | 42 | 16 |  |  |  | 
CCn1ccc2cc(/C=C3\CCc4ccc(OC)cc4C3=O)ccc21 [Compound 12] | 49 | 20 |  |  |  | 
COc1ccc2c(c1)C(=O)/C(=C/c1ccc3ccn(C)c3c1)CC2 [Compound 15] | 42 | 24 |  |  |  | 
COc1cc2c(cc1OC)C(=O)/C(=C/c1ccc3c(ccn3C)c1)CC2 [Compound 16] | 31 |  |  |  |  | 
CCn1ccc2cc(/C=C3\CCc4cc(OC)c(OC)cc4C3=O)ccc21 [Compound 17] | 45 | 19 |  |  |  | 
Cn1ccc2cc(/C=C3\CCc4ccccc4C3=O)ccc21 [Compound 2] | 52 | 56 |  |  |  | 
CC(=O)O[C@@]12CO[C@@H]1C[C@H](O)[C@@]1(C)C(=O)[C@H](O)C3=C(C)[C@@H](OC(=O)[C@H](O)[C@@H](NC(=O)OC(C)(C)C)c4ccccc4)C[C@@](O)([C@@H](OC(=O)c4ccccc4)[C@H]21)C3(C)C [docetaxel, reference compound] |  |  |  |  |  | stabilization of microtubules
CCn1ccc2cc(/C=C3\CCc4ccccc4C3=O)ccc21 [Compound 3] | 58 | 52 |  |  |  | 
COc1ccc2c(c1)C(=O)/C(=C/c1ccc3c(ccn3C)c1)CC2 [Compound 14] | 18 | 21 |  |  |  | 
O=C1/C(=C/c2ccc3[nH]ccc3c2)CCc2ccc(F)cc21 [Compound 7, (2E)-7-fluoro-2-(1H-indol-5-ylmethylidene)-1,2,3,4-tetrahydronaphthalen-1-one] | 45 | 43 | accelerated migration | 449 | 271 | 
COc1cc2c(cc1OC)C(=O)/C(=C/c1ccc3ccn(C)c3c1)CC2 [Compound 18] | 55 | 41 |  |  |  | 
Cn1ccc2cc(/C=C3\CCc4ccc(Br)cc4C3=O)ccc21 [Compound 20] | 47 | 21 |  |  |  | 
Cn1ccc2ccc(/C=C3\CCc4ccccc4C3=O)cc21 [Compound 4] | 61 | 53 |  |  |  | 
O=C1/C(=C/c2ccc3[nH]ccc3c2)CCc2ccccc21 [Compound 1] | 55 | 47 |  |  |  | 
Cn1ccc2ccc(/C=C3\CCc4ccc(Br)cc4C3=O)cc21 [Compound 21] | 39 | 26 |  |  |  | 
COc1ccc2c(c1)C(=O)/C(=C/c1ccc3[nH]ccc3c1)CC2 [Compound 13] | 55 | 5 |  |  |  | 
